Test results: patent US8324245B2, “Quinoline derivative and quinazoline derivative inhibiting self-phosphorylation of hepatocytus proliferator receptor, and medicinal composition containing the same” (Kyowa Hakko Kirin Co., Ltd., priority 2001, dated 2012)

Molecular target: T1, met (HGF receptor) in human gastric cancer cells MKN45 (Homo sapiens, UniProt P08581)
T1 construct: endogenous in cells; host or cells: MKN45 human gastric cancer cells
Experiment: Inhibitory activity against met-autophosphorylation using ELISA method (2), MKN45 cells, HGF-independent
Assay type: cell-based
Procedure, shortened: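 Met autophosphorylation was read by sandwich ELISA: phosphotyrosine capture (PY20), anti-HGF receptor detection, peroxidase read-out at 450 nm. Lysates came from MKN45 gastric cancer cells kept in 0.1% FCS RPMI and treated 1 h at 37 °C with test compound, with no added HGF.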

T1 sequence (P08581 25-1390): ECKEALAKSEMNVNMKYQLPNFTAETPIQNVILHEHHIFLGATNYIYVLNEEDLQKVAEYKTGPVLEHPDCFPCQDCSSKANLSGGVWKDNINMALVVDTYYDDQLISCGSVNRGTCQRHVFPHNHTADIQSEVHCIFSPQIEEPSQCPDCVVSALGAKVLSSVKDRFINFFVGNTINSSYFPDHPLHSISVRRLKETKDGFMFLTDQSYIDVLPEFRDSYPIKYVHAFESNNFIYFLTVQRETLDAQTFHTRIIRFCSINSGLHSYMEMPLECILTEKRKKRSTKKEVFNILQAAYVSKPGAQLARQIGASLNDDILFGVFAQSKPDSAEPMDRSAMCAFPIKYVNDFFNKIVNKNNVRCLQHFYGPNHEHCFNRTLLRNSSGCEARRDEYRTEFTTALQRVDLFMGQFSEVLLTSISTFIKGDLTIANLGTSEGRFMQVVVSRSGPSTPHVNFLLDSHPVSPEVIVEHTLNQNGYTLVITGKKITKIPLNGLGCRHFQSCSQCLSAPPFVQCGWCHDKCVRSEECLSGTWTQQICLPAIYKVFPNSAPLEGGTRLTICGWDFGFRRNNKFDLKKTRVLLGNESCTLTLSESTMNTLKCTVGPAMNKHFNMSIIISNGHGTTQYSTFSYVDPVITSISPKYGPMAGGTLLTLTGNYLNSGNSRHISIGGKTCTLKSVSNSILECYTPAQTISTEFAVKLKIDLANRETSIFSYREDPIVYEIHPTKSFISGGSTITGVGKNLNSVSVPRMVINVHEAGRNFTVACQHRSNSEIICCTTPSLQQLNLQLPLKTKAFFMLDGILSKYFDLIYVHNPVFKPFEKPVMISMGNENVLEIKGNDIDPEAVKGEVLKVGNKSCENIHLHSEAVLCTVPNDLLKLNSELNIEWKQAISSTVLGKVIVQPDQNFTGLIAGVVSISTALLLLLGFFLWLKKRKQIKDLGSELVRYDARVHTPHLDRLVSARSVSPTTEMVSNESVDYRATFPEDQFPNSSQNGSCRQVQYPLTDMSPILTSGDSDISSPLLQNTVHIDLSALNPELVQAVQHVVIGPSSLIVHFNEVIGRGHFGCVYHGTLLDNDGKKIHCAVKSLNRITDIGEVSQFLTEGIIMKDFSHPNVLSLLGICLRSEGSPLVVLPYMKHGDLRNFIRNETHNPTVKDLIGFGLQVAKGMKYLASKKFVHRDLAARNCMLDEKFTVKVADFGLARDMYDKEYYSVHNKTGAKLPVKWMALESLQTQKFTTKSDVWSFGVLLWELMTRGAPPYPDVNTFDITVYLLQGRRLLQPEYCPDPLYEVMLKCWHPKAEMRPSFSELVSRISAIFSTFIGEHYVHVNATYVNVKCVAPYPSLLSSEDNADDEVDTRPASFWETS

IC50 [nM] | Structure (SMILES)
322 | COc1cc2nccc(Oc3ccc(NC(=S)NC(=O)Cc4cc(F)cc(F)c4)c(F)c3)c2cc1OC [Example 196, 1-[2-(3,5-difluorophenyl)acetyl]-3-[4-(6,7-dimethoxyquinolin-4-yloxy)-2-fluorophenyl]thiourea]
284 | COc1cc2nccc(Oc3ccc(NC(=S)NC(=O)Cc4cc(F)cc(F)c4)cc3F)c2cc1OC [Example 197, 1-[2-(3,5-difluorophenyl)acetyl]-3-[4-(6,7-dimethoxyquinolin-4-yloxy)-3-fluorophenyl]thiourea]
294 | COc1cc2nccc(Oc3ccc(NC(=S)NC(=O)Cc4ccc(F)c(F)c4)c(F)c3)c2cc1OC [Example 198, 1-[2-(3,4-difluorophenyl)acetyl]-3-[4-(6,7-dimethoxyquinolin-4-yloxy)-2-fluorophenyl]thiourea]
241 | COc1cc2nccc(Oc3ccc(NC(=S)NC(=O)Cc4ccc(F)c(F)c4)cc3F)c2cc1OC [Example 199, 1-[2-(3,4-difluorophenyl)acetyl]-3-[4-(6,7-dimethoxyquinolin-4-yloxy)-3-fluorophenyl]thiourea]
305 | COc1cc2nccc(Oc3ccc(NC(=S)NC(=O)Cc4ccccc4C(F)(F)F)c(F)c3)c2cc1OC [Example 200, 1-[4-(6,7-dimethoxyquinolin-4-yloxy)-2-fluorophenyl]-3-[2-(2-trifluoromethylphenyl)acetyl]-thiourea]
226 | COc1cc2nccc(Oc3ccc(NC(=S)NC(=O)Cc4ccccc4C(F)(F)F)cc3F)c2cc1OC [Example 201, 1-[4-(6,7-dimethoxyquinolin-4-yloxy)-3-fluorophenyl]-3-[2-(2-trifluoromethylphenyl)acetyl]-thiourea]
642 | COc1cc2nccc(Oc3ccc(NC(=S)NC(=O)Cc4cccc(C(F)(F)F)c4)c(F)c3)c2cc1OC [Example 202, 1-[4-(6,7-dimethoxyquinolin-4-yloxy)-2-fluorophenyl]-3-[2-(3-trifluoromethylphenyl)acetyl]-thiourea]
281 | COc1cc2nccc(Oc3ccc(NC(=S)NC(=O)Cc4cccc(C(F)(F)F)c4)cc3F)c2cc1OC [Example 203, 1-[4-(6,7-dimethoxyquinolin-4-yloxy)-3-fluorophenyl]-3-[2-(3-trifluoromethylphenyl)acetyl]-thiourea]
321 | COc1cc2nccc(Oc3ccc(NC(=S)NC(=O)Cc4c(F)ccc(F)c4F)cc3)c2cc1OC [Example 204, 1-[4-(6,7-dimethoxyquinolin-4-yloxy)phenyl]-3-[2-(2,3,6-trifluorophenyl)acetyl]thiourea]
265 | COc1cc2nccc(Oc3ccc(NC(=S)NC(=O)Cc4c(F)ccc(F)c4F)c(F)c3)c2cc1OC [Example 205, 1-[4-(6,7-dimethoxyquinolin-4-yloxy)-2-fluorophenyl]-3-[2-(2,3,6-trifluorophenyl)acetyl]-thiourea]
444 | COc1cc2nccc(Oc3ccc(NC(=S)NC(=O)Cc4c(F)ccc(F)c4F)cc3F)c2cc1OC [Example 206, 1-[4-(6,7-dimethoxyquinolin-4-yloxy)-3-fluorophenyl]-3-[2-(2,3,6-trifluorophenyl)acetyl]-thiourea]
300 | COc1cc2nccc(Oc3ccc(NC(=S)NC(=O)Cc4c(F)ccc(F)c4F)cc3Cl)c2cc1OC [Example 207, 1-[3-chloro-4-(6,7-dimethoxyquinolin-4-yloxy)phenyl]-3-[2-(2,3,6-trifluorophenyl)acetyl]-thiourea]
258 | COc1cc2nccc(Oc3ccc(NC(=S)NC(=O)Cc4c(Cl)cccc4Cl)c(F)c3)c2cc1OC [Example 208, 1-[2-(2,6-dichlorophenyl)acetyl]-3-[4-(6,7-dimethoxyquinolin-4-yloxy)-2-fluorophenyl]thiourea]
928 | CCCCNC(=O)CC(=O)Nc1ccc(Oc2ccnc3cc(OC)c(OC)cc23)cc1 [Example 209, N-butyl-N′-[4-(6,7-dimethoxyquinolin-4-yloxy)phenyl]malonamide]
228 | COc1cc2nccc(Oc3ccc(NC(=O)CC(=O)Nc4cccc(Cl)c4)cc3)c2cc1OC [Example 210, N-(3-chlorophenyl)-N′-[4-(6,7-dimethoxy-quinolin-4-yloxy)phenyl]malonamide]
252 | COc1ccccc1NC(=O)CC(=O)Nc1ccc(Oc2ccnc3cc(OC)c(OC)cc23)cc1 [Example 211, N-[4-(6,7-dimethoxyquinolin-4-yloxy)phenyl]-N′-(2-methoxyphenyl)malonamide]
379 | COc1cc2nccc(Oc3ccc(NC(=O)CC(=O)NC4CCC4)cc3)c2cc1OC [Example 212, N-cyclobutyl-N′-[4-(6,7-dimethoxyquinolin-4-yloxy)phenyl]malonamide]
2430 | COC(=O)c1cccc(NC(=O)CC(=O)Nc2ccc(Oc3ccnc4cc(OC)c(OC)cc34)cc2)c1 [Example 213, methyl 3-{2-[4-(6,7-dimethoxyquinolin-4-yloxy)phenylcarbamoyl]acetylamino}benzoate]
2530 | COc1cc2nccc(Oc3ccc(NC(=O)CC(=O)NC(C)c4ccccc4)cc3)c2cc1OC (centres unmarked) [Example 214, N-[4-(6,7-dimethoxyquinolin-4-yloxy)phenyl]-N′-(1-phenylethyl)malonamide]

IC50 [nM] | Structure (SMILES)
1980 | COc1cc2nccc(Oc3ccc(NC(=O)CC(=O)NCc4ccccc4)cc3)c2cc1OC [Example 215, N-benzyl-N′-[4-(6,7-dimethoxyquinolin-4-yloxy)phenyl]malonamide]
228 | COc1cc2nccc(Oc3ccc(NC(=O)CC(=O)N(C)c4ccccc4)cc3)c2cc1OC [Example 216, N-[4-(6,7-dimethoxyquinolin-4-yloxy)phenyl]-N′-methyl-N′-phenylmalonamide]
333 | COc1cc2nccc(Oc3ccc(NC(=O)CC(=O)NC4CCCCC4)cc3)c2cc1OC [Example 217, N-cyclohexyl-N′-[4-(6,7-dimethoxyquinolin-4-yloxy)phenyl]malonamide]
479 | COc1cc2nccc(Oc3ccc(NC(=O)CC(=O)NCC4CCCCC4)cc3)c2cc1OC [Example 218, N-cyclohexylmethyl-N′-[4-(6,7-dimethoxy-quinolin-4-yloxy)phenyl]malonamide]
736 | COc1cc2nccc(Oc3ccc(NC(=O)CC(=O)Nc4ccc(Cl)cc4)cc3)c2cc1OC [Example 219, N-(4-chlorophenyl)-N′-[4-(6,7-dimethoxy-quinolin-4-yloxy)phenyl]malonamide]
297 | COc1cc2nccc(Oc3ccc(NC(=O)CC(=O)Nc4cccc(O)c4)cc3)c2cc1OC [Example 220, N-[4-(6,7-dimethoxyquinolin-4-yloxy)phenyl]-N′-(3-hydroxyphenyl)malonamide]
221 | COc1cc2nccc(Oc3ccc(NC(=O)CC(=O)NCCC(C)(C)C)cc3)c2cc1OC [Example 221, N-[4-(6,7-dimethoxyquinolin-4-yloxy)phenyl]-N′-(3,3-dimethyl-butyl)malonamide]
201 | COc1cc2nccc(Oc3ccc(NC(=O)CC(=O)Nc4ccc(F)cc4F)c(Cl)c3)c2cc1OC [Example 222, N-[2-chloro-4-(6,7-dimethoxyquinolin-4-yloxy)phenyl]-N′-(2,4-difluorophenyl)malonamide]
268 | COc1cc2nccc(Oc3ccc(NC(=O)CC(=O)Nc4ccc(F)cc4F)c(C)c3)c2cc1OC [Example 223, N-(2,4-difluorophenyl)-N′-[4-(6,7-dimethoxy-quinolin-4-yloxy)-2-methylphenyl]malonamide]
316 | COc1cc2nccc(Oc3cc(C)c(NC(=O)CC(=O)Nc4ccc(F)cc4F)cc3C)c2cc1OC [Example 224, N-(2,4-difluorophenyl)-N′-[4-(6,7-dimethoxy-quinolin-4-yloxy)-2,5-dimethylphenyl]malonamide]
281 | COc1cc2nccc(Oc3ccc(NC(=O)C(C)C(=O)Nc4ccccc4)cc3)c2cc1OC (centres unmarked) [Example 225, N-[4-(6,7-dimethoxyquinolin-4-yloxy)phenyl]-2-methyl-N′-phenylmalonamide]
3230 | COc1cc2nccc(Oc3ccc(NC(=O)C(C)C(=O)NC4CCCCC4)cc3)c2cc1OC (centres unmarked) [Example 226, N-cyclohexyl-N′-[4-(6,7-dimethoxyquinolin-4-yloxy)phenyl]-2-methylmalonamide]
4360 | COc1cc2nccc(Oc3ccc(NC(=O)CC(=O)Nc4cccnc4)cc3)c2cc1OC [Example 227, N-[4-(6,7-dimethoxyquinolin-4-yloxy)phenyl]-N′-pyridin-3-ylmalonamide]
394 | COc1cc2nccc(Oc3ccc(NC(=O)C(C)(C)C(=O)Nc4ccccc4)cc3)c2cc1OC [Example 228, N-[4-(6,7-dimethoxyquinolin-4-yloxy)phenyl]-2,2-dimethyl-N′-phenylmalonamide]
273 | COc1cc2nccc(Oc3ccc(NC(=O)NC(=O)Nc4ccc(F)cc4F)cc3)c2cc1OC [Example 229, N-(2,4-difluorophenyl)-({[4-(6,7-dimethoxy-quinolin-4-yloxy)anilino]carbonyl}amino)methanamide]
340 | COc1cc2nccc(Oc3ccc(NC(=O)NC(=O)Nc4ncc(C)cc4Br)cc3)c2cc1OC [Example 230, N-(3-bromo-5-methyl-2-pyridyl)-({[4-(6,7-dimethoxyquinolin-4-yloxy)anilino]carbonyl}amino)-methanamide]
329 | COc1cc2nccc(Oc3ccc(NC(=O)NC(=O)Nc4ccc(Cl)cn4)cc3)c2cc1OC [Example 231, N-(5-chloro-2-pyridyl)-({[4-(6,7-dimethoxy-quinolin-4-yloxy)anilino]carbonyl}amino)methanamide]
256 | COc1cc2nccc(Oc3ccc(NC(=O)NC(=O)Nc4cc(C)on4)cc3)c2cc1OC [Example 232, N-(5-methyl-3-isoxazolyl)-({[4-(6,7-dimethoxyquinolin-4-yloxy)anilino]carbonyl}amino)-methanamide]
322 | COc1cc2nccc(Oc3ccc(NC(=O)NC(=O)Nc4ncccc4C)cc3)c2cc1OC [Example 233, N-(3-methyl-2-pyridyl)-({[4-(6,7-dimethoxy-quinolin-4-yloxy)anilino]carbonyl}amino)methanamide]
